Measured values reported in patent US9107415B2, “2-(substituted-phenyl)-cyclopentane-1,3-dione compounds, and derivatives thereof” (Syngenta Limited, priority 2011, dated 2015).

Assays:
Type in all cases: in vivo
Avena fatua (AVEFA) [1] = experiment: Biological Example 1 glasshouse screen, post-emergence herbicidal activity; details: 312 h, application rate 250 g/ha, evaluated after 13 days, read-out: AVEFA percentage phytotoxicity
In short: (§1)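 Pots in a glasshouse (24/16°C day/night, 14 h light, 65% humidity) were sprayed one day after sowing (pre-emergence) or after 8 days (post-emergence), using acetone/water (50:50) with 0.5% Tween 20. Phytotoxicity was scored visually as % damage (0-100) 13 days after application.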

Lolium perenne (LOLPE) [2] = experiment: as above; details: 312 h, application rate 250 g/ha, evaluated after 13 days, read-out: LOLPE percentage phytotoxicity
In short: as §1

[3] = test system: Alopecurus myosuroides (ALOMY); experiment: as above; details: 312 h, application rate 250 g/ha, evaluated after 13 days, read-out: ALOMY percentage phytotoxicity
In short: (§2)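 Glasshouse, 24/16°C, 14 h light, 65% RH, watered twice daily. Spray: technical a.i., acetone/water 50:50, 0.5% Tween 20. Timing: day 1 pre-em, day 8 post-em. Score: visual % damage, day 13.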

[4] = test system: Echinochloa crus-galli (ECHCG); experiment: as above; details: 312 h, application rate 250 g/ha, evaluated after 13 days, read-out: ECHCG percentage phytotoxicity
In short: as §2

Spring Wheat “Teal” = experiment: Biological Example 4B post-emergence phytotoxicity on cereal crops; details: 14 DAA, technical compound in IF50 + Adigor, mean of two
Procedure: (§3) Seeds of a variety of test species are sown in standard soil in pots. After cultivation for 14 days under controlled conditions in a glasshouse (at 22/16°C., day/night; 16 hours light; 65% humidity), the plants are sprayed with an aqueous spray solution derived from the formulation of the technical active ingredient dissolved in acetone plus IF50 containing
(§4) 10.56 wt % Emulsogen™EL (castor oil ethoxylate, CAS Registry number 61791-12-6)
(§5) 42.22 wt % N-Methyl pyrrolidone
(§6) 42.22 wt % dipropylene glycol monoethyl ether
(§7) at a 1:20 ratio of (technical active ingredient:IF50). The adjuvant Adigor™(an adjuvant containing inter alia methylated rapeseed oil, e.g. available from Syngenta) is added to form a 0.5% v/v solution. The test plants are then grown on under controlled conditions in the glasshouse (at 22/16°C., day/night; 16 hours light; 65% humidity) and are watered twice daily. After 14 days the test is evaluated (100%=total damage to plant; 0%=no damage to plant).
Post-emergence herbicidal activity (phytotoxicity) data, on certain grassy monocotyledonous weeds and cereal crops in a glasshouse, are measured 14 days after application of the herbicide (14 DAA), for (a) a […] the same time as the herbicide, and (b) for a post-emergence application rate of 30 g/ha of the test herbicide with 50 g/ha of cloquintocet-mexyl safener applied at substantially the same time as the herbicide. Herbicidal activity (phytotoxicity) is evaluated visually, and an assessed percentage phytotoxicity score is given for each herbicidal application on each plant species (with 100%=total damage to plant; 0%=no damage to plant). Two repetitions are made for each experiment, and the mean herbicidal activity (phytotoxicity) data is reported.

[5] = test system: Triticum aestivum, wheat (TRZAW); experiment: Biological Example 3 glasshouse screen, post-emergence, phytotoxicity on wheat; details: 360 h, 15 DAA, no safener, read-out: TRZAW percentage phytotoxicity; for pest or weed control at 30 g/ha: application rate 30 g/ha; for pest or weed control at 60 g/ha: application rate 60 g/ha
In short: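 Seeds were sown in standard soil and cultivated for 12 days under controlled glasshouse conditions. Plants were then sprayed with the unformulated compound in acetone/IF50 plus 0.2% v/v X-77 in aqueous solution, without safener, and percentage damage was assessed visually 15 days later.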

Avena fatua (AVEFA) [6] = experiment: Biological Example 1 glasshouse screen, pre-emergence herbicidal activity; details: 312 h, application rate 250 g/ha, evaluated after 13 days, read-out: AVEFA percentage phytotoxicity
In short: as §1

Lolium perenne (LOLPE) [7] = experiment: as above; details: 312 h, application rate 250 g/ha, evaluated after 13 days, read-out: LOLPE percentage phytotoxicity
In short: as §1

Winter Barley “Suzuka” = experiment: Biological Example 4B post-emergence phytotoxicity on cereal crops; details: 14 DAA, technical compound in IF50 + Adigor, mean of two
Procedure: as §3, §4, §5, §6, §7
(§8) […] Herbicidal activity (phytotoxicity) is evaluated visually, and an assessed percentage phytotoxicity score is given for each herbicidal application on each plant species (with 100%=total damage to plant; 0%=no damage to plant). Two repetitions are made for each experiment, and the mean herbicidal activity (phytotoxicity) data is reported.

Winter Wheat “Hereward” = experiment: as above; details: 14 DAA, technical compound in IF50 + Adigor, mean of two
Procedure: as §3, §4, §5, §6, §7, §8

[8] = 30 g/ha, cloquintocet-mexyl 50 g/ha
[9] = 60 g/ha, cloquintocet-mexyl 0 g/ha
[10] = 60 g/ha, cloquintocet-mexyl 50 g/ha
[11] = 15 g/ha, cloquintocet-mexyl 50 g/ha

CC#Cc1cc(C)c(C2=C(O)CC(Cc3ccc(C)cn3)C2=O)c(C)c1 (stereo not shown) [Compound A-8]
pest or weed control at 250 g/ha (Avena fatua (AVEFA) [1]): 100%
pest or weed control at 250 g/ha (Lolium perenne (LOLPE) [2]): 100%
pest or weed control at 250 g/ha [3]: 100%
pest or weed control at 250 g/ha [4]: 100%
Spring Wheat “Teal” phytotoxicity (%) (Spring Wheat “Teal”; [8]): 0%
Spring Wheat “Teal” phytotoxicity (%) (Spring Wheat “Teal”; [9]): 73%
Spring Wheat “Teal” phytotoxicity (%) (Spring Wheat “Teal”; [10]): 25%
pest or weed control at 30 g/ha [5]: 40%
pest or weed control at 250 g/ha (Avena fatua (AVEFA) [6]): 100%
pest or weed control at 250 g/ha (Lolium perenne (LOLPE) [7]): 100%
Winter Barley “Suzuka” phytotoxicity (%) (Winter Barley “Suzuka”; [8]): 9%
Winter Barley “Suzuka” phytotoxicity (%) (Winter Barley “Suzuka”; [9]): 73%
Winter Barley “Suzuka” phytotoxicity (%) (Winter Barley “Suzuka”; [10]): 60%
Winter Wheat “Hereward” phytotoxicity (%) (Winter Wheat “Hereward”; [8]): 13%
Winter Wheat “Hereward” phytotoxicity (%) (Winter Wheat “Hereward”; [9]): 63%
Winter Wheat “Hereward” phytotoxicity (%) (Winter Wheat “Hereward”; [10]): 45%

CC#Cc1cc(C)c(C2=C(O)CC(Cc3ccc(F)cn3)C2=O)c(C)c1 (stereo not shown) [Compound A-11]
pest or weed control at 250 g/ha (Avena fatua (AVEFA) [1]): 90%
pest or weed control at 250 g/ha (Lolium perenne (LOLPE) [2]): 100%
pest or weed control at 250 g/ha [3]: 100%
pest or weed control at 250 g/ha [4]: 100%
Spring Wheat “Teal” phytotoxicity (%) (Spring Wheat “Teal”; [8]): 8%
Spring Wheat “Teal” phytotoxicity (%) (Spring Wheat “Teal”; [9]): 38%
Spring Wheat “Teal” phytotoxicity (%) (Spring Wheat “Teal”; [10]): 15%
pest or weed control at 30 g/ha [5]: 40%
pest or weed control at 60 g/ha [5]: 50%
pest or weed control at 250 g/ha (Avena fatua (AVEFA) [6]): 70%
pest or weed control at 250 g/ha (Lolium perenne (LOLPE) [7]): 100%
Winter Barley “Suzuka” phytotoxicity (%) (Winter Barley “Suzuka”; [8]): 8%
Winter Barley “Suzuka” phytotoxicity (%) (Winter Barley “Suzuka”; [9]): 68%
Winter Barley “Suzuka” phytotoxicity (%) (Winter Barley “Suzuka”; [10]): 33%
Winter Wheat “Hereward” phytotoxicity (%) (Winter Wheat “Hereward”; [8]): 3%
Winter Wheat “Hereward” phytotoxicity (%) (Winter Wheat “Hereward”; [9]): 55%
Winter Wheat “Hereward” phytotoxicity (%) (Winter Wheat “Hereward”; [10]): 8%

CC#Cc1cc(C)c(C2=C(O)CC(Cc3ccc(C#N)cn3)C2=O)c(C)c1 (stereo not shown) [Compound A-14]
pest or weed control at 250 g/ha (Avena fatua (AVEFA) [1]): 90%
pest or weed control at 250 g/ha (Lolium perenne (LOLPE) [2]): 100%
pest or weed control at 250 g/ha [3]: 100%
pest or weed control at 250 g/ha [4]: 100%
Spring Wheat “Teal” phytotoxicity (%) (Spring Wheat “Teal”; [8]): 13%
Spring Wheat “Teal” phytotoxicity (%) (Spring Wheat “Teal”; [9]): 83%
Spring Wheat “Teal” phytotoxicity (%) (Spring Wheat “Teal”; [10]): 65%
pest or weed control at 30 g/ha [5]: 20%
pest or weed control at 60 g/ha [5]: 40%
pest or weed control at 250 g/ha (Avena fatua (AVEFA) [6]): 50%
pest or weed control at 250 g/ha (Lolium perenne (LOLPE) [7]): 90%
Winter Barley “Suzuka” phytotoxicity (%) (Winter Barley “Suzuka”; [8]): 45%
Winter Barley “Suzuka” phytotoxicity (%) (Winter Barley “Suzuka”; [9]): 97%
Winter Barley “Suzuka” phytotoxicity (%) (Winter Barley “Suzuka”; [10]): 93%
Winter Wheat “Hereward” phytotoxicity (%) (Winter Wheat “Hereward”; [8]): 30%
Winter Wheat “Hereward” phytotoxicity (%) (Winter Wheat “Hereward”; [9]): 80%
Winter Wheat “Hereward” phytotoxicity (%) (Winter Wheat “Hereward”; [10]): 78%

CC#Cc1cc(C)c(C2C(=O)CC(Cc3ccn(C)n3)C2=O)c(C)c1 (stereo not shown) [Compound A-19]
pest or weed control at 250 g/ha (Avena fatua (AVEFA) [1]): 100%
pest or weed control at 250 g/ha (Lolium perenne (LOLPE) [2]): 100%
pest or weed control at 250 g/ha [3]: 100%
pest or weed control at 250 g/ha [4]: 100%
Spring Wheat “Teal” phytotoxicity (%) (Spring Wheat “Teal”; [11]): 23%
Spring Wheat “Teal” phytotoxicity (%) (Spring Wheat “Teal”; [8]): 73%
Spring Wheat “Teal” phytotoxicity (%) (Spring Wheat “Teal”; [9]): 90%
Spring Wheat “Teal” phytotoxicity (%) (Spring Wheat “Teal”; [10]): 83%
pest or weed control at 15 g/ha ([5]; application rate 15 g/ha): 20%
pest or weed control at 30 g/ha [5]: 70%
pest or weed control at 250 g/ha (Avena fatua (AVEFA) [6]): 100%
pest or weed control at 250 g/ha (Lolium perenne (LOLPE) [7]): 100%
Winter Barley “Suzuka” phytotoxicity (%) (Winter Barley “Suzuka”; [11]): 3%
Winter Barley “Suzuka” phytotoxicity (%) (Winter Barley “Suzuka”; [8]): 55%
Winter Barley “Suzuka” phytotoxicity (%) (Winter Barley “Suzuka”; [9]): 97%
Winter Barley “Suzuka” phytotoxicity (%) (Winter Barley “Suzuka”; [10]): 95%
Winter Wheat “Hereward” phytotoxicity (%) (Winter Wheat “Hereward”; [11]): 58%
Winter Wheat “Hereward” phytotoxicity (%) (Winter Wheat “Hereward”; [8]): 65%
Winter Wheat “Hereward” phytotoxicity (%) (Winter Wheat “Hereward”; [9]): 89%
Winter Wheat “Hereward” phytotoxicity (%) (Winter Wheat “Hereward”; [10]): 75%
